Measurements published in patent US20230121313A1 (priority 2019, published 2023).

System: subjects with MDD at imminent risk for suicide
Settings: 84 mg; double-blind phase; N = 35
Source text: Among 68 randomized subjects, 66 were included in the safety analysis set (defined as receiving at least one dose of study medication in the double-blind phase). […] All safety subjects (N=66) were included in the intent-to-treat (ITT) analysis set (defined as receiving at least one dose of study medication during the double-blind phase and having both the baseline and the Day 1, 4-hour postdose evaluation for the MADRS total score). Forty-nine subjects were included in the safety (FU) analysis set (defined as all subjects who have at least 1 visit during the follow up phase).

CN[C@]1(c2ccccc2Cl)CCCCC1=O [esketamine, (S)-2-(2-chlorophenyl)-2-(methylamino)cyclohexanone]
Serious TEAE: Agitation, subjects (%): 2.9% | Serious TEAE: Depressive symptom, subjects (%): 2.9% | Serious TEAE: Psychiatric disorders, subjects (%): 11.4% | Serious TEAE: Suicidal ideation, subjects (%): 5.7% | Subjects with 1 or more serious TEAE (%): 11.4% | Subjects with TEAE leading to drug withdrawn (%): 14.3% | TEAE Acne, subjects (%): (5.7%) | TEAE Agitation, subjects (%): (8.6%) | TEAE Anxiety, subjects (%): (17.1%) | TEAE Blood pressure increased, subjects (%): (5.7%) | TEAE Diarrhea, subjects (%): (8.6%) | TEAE Diplopia, subjects (%): (5.7%) | TEAE Dissociation, subjects (%): (31.4%) | TEAE Dizziness postural, subjects (%): (5.7%) | TEAE Dizziness, subjects (%): (34.3%) | TEAE Dry mouth, subjects (%): (8.6%) | TEAE Dysgeusia, subjects (%): (31.4%) | TEAE Ear and labyrinth disorders, subjects (%): (25.7%) | TEAE Euphoric mood, subjects (%): (11.4%) | TEAE Eye disorders, subjects (%): (20.0%) | TEAE Fatigue, subjects (%): (5.7%) | TEAE Feeling abnormal, subjects (%): (8.6%) | TEAE Feeling cold, subjects (%): (5.7%) | TEAE Flatulence, subjects (%): (2.9%) | TEAE Gastrointestinal disorders, subjects (%): (54.3%) | TEAE General disorders and administration site conditions, subjects (%): (28.6%) | TEAE Headache, subjects (%): (31.4%) | TEAE Hyperacusis, subjects (%): (5.7%) | TEAE Hyperhidrosis, subjects (%): (5.7%) | TEAE Hypoesthesia oral, subjects (%): (5.7%) | TEAE Hypoesthesia, subjects (%): (8.6%) | TEAE Infections and infestations, subjects (%): (2.9%) | TEAE Insomnia, subjects (%): (8.6%) | TEAE Investigations, subjects (%): (14.3%) | TEAE Nasal congestion, subjects (%): (2.9%) | TEAE Nasal discomfort, subjects (%): (8.6%) | TEAE Nausea, subjects (%): (37.1%) | TEAE Nervous system disorders, subjects (%): (71.4%) | TEAE Oropharyngeal pain, subjects (%): (5.7%) | TEAE Paresthesia oral, subjects (%): (5.7%) | TEAE Paresthesia, subjects (%): (17.1%) | TEAE Pharyngeal hypoesthesia, subjects (%): (5.7%) | TEAE Psychiatric disorders, subjects (%): (57.1%) | TEAE Rash, subjects (%): (2.9%) | TEAE Renal and urinary disorders, subjects (%): (2.9%) | TEAE Respiratory, thoracic and mediastinal disorders, subjects (%): (25.7%) | TEAE Sedation, subjects (%): (17.1%) | TEAE Skin and subcutaneous tissue disorders, subjects (%): (14.3%) | TEAE Somnolence, subjects (%): (11.4%) | TEAE Suicidal ideation, subjects (%): (5.7%) | TEAE Throat irritation, subjects (%): (8.6%) | TEAE Tinnitus, subjects (%): (5.7%) | TEAE Vertigo, subjects (%): (11.4%) | TEAE Vision blurred, subjects (%): (8.6%) | TEAE Vomiting, subjects (%): (20.0%) | TEAE Weight increased, subjects (%): (5.7%) | TEAE leading to study discontinuation: Aggression, subjects (%): 2.9% | TEAE leading to study discontinuation: Agitation, subjects (%): 2.9% | TEAE leading to study discontinuation: Cardiac disorders, subjects (%): 2.9% | TEAE leading to study discontinuation: Dizziness, subjects (%): 2.9% | TEAE leading to study discontinuation: Dysgeusia, subjects (%): 2.9% | TEAE leading to study discontinuation: Dyspnea, subjects (%): 2.9% | TEAE leading to study discontinuation: Gastrointestinal disorders, subjects (%): 2.9% | TEAE leading to study discontinuation: Nausea, subjects (%): 2.9% | TEAE leading to study discontinuation: Nervous system disorders, subjects (%): 5.7% | TEAE leading to study discontinuation: Psychiatric disorders, subjects (%): 5.7% | TEAE leading to study discontinuation: Respiratory, thoracic and mediastinal disorders, subjects (%): 2.9% | TEAE leading to study discontinuation: Ventricular extrasystoles, subjects (%): 2.9% | Total no. subjects with TEAE leading to study discontinuation (%): 14.3%
